pIC50: −log10 of the molar value.
Target: T1, MAGL (Homo sapiens, UniProt Q99685)
T1 sequence (Q99685 1-303): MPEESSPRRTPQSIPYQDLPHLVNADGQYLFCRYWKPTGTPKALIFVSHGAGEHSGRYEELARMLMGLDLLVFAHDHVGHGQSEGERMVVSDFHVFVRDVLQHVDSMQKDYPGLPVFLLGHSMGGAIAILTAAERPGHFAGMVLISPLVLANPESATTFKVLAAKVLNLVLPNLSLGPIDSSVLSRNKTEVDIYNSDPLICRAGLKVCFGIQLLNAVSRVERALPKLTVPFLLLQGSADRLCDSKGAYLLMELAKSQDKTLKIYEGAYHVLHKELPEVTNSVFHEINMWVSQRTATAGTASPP
Experiment: 2-AG assay (MAGL inhibitory activity, hydrolysis of 2-arachidonoylglycerol followed by mass spectrometry)
Assay type: biochemical
Conditions: 50 pM MAGL, 8 μM 2-arachidonoylglycerol, 15 min preincubation, 30 min incubation at RT
Experimental: Compounds were profiled for MAGL inhibitory activity by determining the enzymatic activity by following the hydrolysis of the natural substrate 2-arachidonoylglycerol resulting in arachidonic acid, which can be followed by mass spectrometry. This assay is hereinafter abbreviated “2-AG assay”.
The 2-AG assay was carried out in 384 well assay plates (PP, Greiner Cat #784201) in a total volume of 20 μL. Compound dilutions were made in 100% DMSO (VWR Chemicals 23500.297) in a polypropylene plate in 3-fold dilution steps to give a final concentration range in the assay from 12.5 μM to 0.8 pM. 0.25 μL compound dilutions (100% DMSO) were added to 9 μL MAGL in assay buffer (50 mM TRIS (GIBCO, 15567-027), 1 mM EDTA (Fluka, 03690-100 ml), 0.01% (v/v) Tween. After shaking, the plate was incubated for 15 min at RT. To start the reaction, 10 μL 2-arachidonoylglycerol in assay buffer was added. The final concentrations in the assay was 50 pM MAGL and 8 μM 2-arachidonoylglyerol. After shaking and 30 min incubation at RT, the reaction was quenched by the addition of 40 μL of acetonitrile containing 4 μM of d8-arachidonic acid. The amount of arachidonic acid was traced by an online SPE system (Agilent Rapidfire) coupled to a triple quadrupole mass spectrometer (Agilent 6460). A C18 SPE cartridge (G9205A) was used in an acetonitrile/water liquid setup. The mass spectrometer was operated in negative electrospray mode following the mass transitions 303.1→259.1 for arachidonic acid and 311.1→267.0 for d8-arachidonic acid. The activity of the compounds was calculated based on the ratio of intensities [arachidonic acid/d8-arachidonic acid].

pIC50 | Structure (SMILES)
6.80 | O=C1CN[C@H]2CCN(C(=O)N3CC(OCc4ccc(C(F)(F)F)cc4F)C3)C[C@H]2N1 (single isomer, unassigned) [Example 13, (4aR,8aS)- or (4aR,8aS)-6-[3-[[2-Fluoro-4-(trifluoromethyl)phenyl]methoxy]azetidine-1-carbonyl]-1,2,4,4a,5,7,8,8a-octahydropyrido[3,4-b]pyrazin-3-one]
7.14 | O=C1CN[C@H]2CCN(C(=O)N3CC(OCc4ccc(C(F)(F)F)cc4F)C3)C[C@H]2N1 (racemic) [Example 12, rac-(4aR,8aS)-6-[3-[[2-Fluoro-4-(trifluoromethyl)phenyl]methoxy]azetidine-1-carbonyl]-1,2,4,4a,5,7,8,8a-octahydropyrido[3,4-b]pyrazin-3-one]
5.84 | O=C1CN[C@@H]2CCN(C(=O)N3CC(OCc4ccc(C(F)(F)F)cc4F)C3)C[C@@H]2N1 (single isomer, unassigned) [Example 14, (4aS,8aR)- or (4aS,8aR)-6-[3-[[2-Fluoro-4-(trifluoromethyl)phenyl]methoxy]azetidine-1-carbonyl]-1,2,4,4a,5,7,8,8a-octahydropyrido[3,4-b]pyrazin-3-one]
5.96 | O=C1CC(O)[C@H]2CCN(C(=O)N3CC(OCc4ccc(C(F)(F)F)cc4F)C3)C[C@H]2N1 (mixture of isomers) [Example 18, rac-(4aS,8aS)-7-[3-[[2-fluoro-4-(trifluoromethyl)phenyl]methoxy]azetidine-1-carbonyl]-4-hydroxy-1,3,4,4a,5,6,8,8a-octahydro-1,7-naphthyridin-2-one]
7.32 | O=C1CSC2=C(CN(C(=O)N3CC(OCc4ccc(C(F)(F)F)cc4F)C3)CC2)N1 [Example 17, 6-[3-[[2-fluoro-4-(trifluoromethyl)phenyl]methoxy]azetidine-1-carbonyl]-4,5,7,8-tetrahydropyrido[4,3-b][1,4]thiazin-3-one]
6.10 | O=C1CO[C@H]2CCN(C(=O)N3CC(OCc4ccc(C(F)(F)F)cc4F)C3)C[C@@]2(O)N1 [Example 16, (4aS,8aS)-6-[3-[[2-fluoro-4-(trifluoromethyl)phenyl]methoxy]azetidine-1-carbonyl]-4a-hydroxy-5,7,8,8a-tetrahydro-4H-pyrido[4,3-b][1,4]oxazin-3-one]

The remaining lines, values behind:

Structure (SMILES) | pIC50
O=C(N1CCC(C(c2ccccc2)c2ccccc2)CC1)N1CCc2ccc(=O)[nH]c2C1 [Example 8, 7-(4-Benzhydrylpiperidine-1-carbonyl)-1,5,6,8-tetrahydro-1,7-naphthyridin-2-one] | 8.52
O=C1CO[C@H]2[C@H](CN(C(=O)N3CC(OCc4ccc(C(F)(F)F)cc4F)C3)CC2(F)F)N1 (single isomer, unassigned) [Example 3] | 7.95
O=C1COC2=C(CN(C(=O)N3CCC(Cc4ccc(C(F)(F)F)cc4)CC3)CC2)N1 [Example 7, 6-[4-[[4-(Trifluoromethyl)phenyl]methyl]piperidine-1-carbonyl]-4,5,7,8-tetrahydropyrido[4,3-b][1,4]oxazin-3-one] | 7.29
O=C1CC[C@H]2CCN(C(=O)N3CCC(C(c4ccccc4)c4ccccc4)CC3)C[C@H]2N1 (racemic) [Example 10, rac-(4aS,8aS)-7-(4-Benzhydrylpiperidine-1-carbonyl)octahydro-1,7-naphthyridin-2(1H)-one] | 10.22
O=C(N1CCc2ccc(=O)[nH]c2C1)N1CC(OCc2ccc(C(F)(F)F)cc2F)C1 [Example 9, 7-[3-[[2-Fluoro-4-(trifluoromethyl)phenyl]methoxy]azetidine-1-carbonyl]-1,5,6,8-tetrahydro-1,7-naphthyridin-2-one] | 7.84
O=C1CC[C@H]2CCN(C(=O)N3CC(OCc4ccc(C(F)(F)F)cc4F)C3)C[C@H]2N1 (racemic) [Example 11, rac-(4aS,8aS)-7-[3-[[2-Fluoro-4-(trifluoromethyl)phenyl]methoxy]azetidine-1-carbonyl]-1,3,4,4a,5,6,8,8a-octahydro-1,7-naphthyridin-2-one] | 8.51
O=C1CO[C@@H]2[C@@H](CN(C(=O)N3CC(OCc4ccc(C(F)(F)F)cc4F)C3)CC2(F)F)N1 (single isomer, unassigned) [Example 4] | 5.86
CC1CN(C(=O)N2CC(OCc3ccc(C(F)(F)F)cc3F)C2)CC2NC(=O)COC12 [Example 2, rel-(4aS,8R,8aR)-6-[3-[[2-Fluoro-4-(trifluoromethyl)phenyl]methoxy]azetidine-1-carbonyl]-8-methyl-4,4a,5,7,8,8a-hexahydropyrido[4,3-b][1,4]oxazin-3-one] | 6.93
O=C1CO[C@H]2[C@H](CN(C(=O)N3CC(c4ccc(CC(F)(F)F)cc4)C3)CC2(F)F)N1 (single isomer, unassigned) [Example 5] | 8.59
C[C@H]1CN(C(=O)N2CC(OCc3ccc(C(F)(F)F)cc3F)C2)C[C@H]2NC(=O)CO[C@@H]12 (relative stereo) [Example 1, rel-(4aR,8S,8aS)-6-[3-[[2-Fluoro-4-(trifluoromethyl)phenyl]methoxy]azetidine-1-carbonyl]-8-methyl-4,4a,5,7,8,8a-hexahydropyrido[4,3-b][1,4]oxazin-3-one] | 8.36
O=C1CO[C@@H]2[C@@H](CN(C(=O)N3CC(c4ccc(CC(F)(F)F)cc4)C3)CC2(F)F)N1 (single isomer, unassigned) [Example 6] | 6.19
